# Laboratory results as given in patent US7795305B2, “CDDO-compounds and combination therapies thereof” (Board of Regents, The University of Texas System, priority 2000, dated 2010).
# Key:
# HL-60 cells [1] = conditions: 15d-PGJ2 at 3 μM, BRL49653 at 5 μM (Tontonoz et al., 1998); cited from earlier work
# primary AML samples = assay: Annexin V staining of primary AML samples exposed to PPARγ ligands; assay type: cell-based, human; conditions: 72 hrs; 15d-PGJ2 5 μM; BRL49653, L-805645, GW347845X 25 μM
# Experimental: (§1) Annexin V staining. Cells were washed in phosphate-buffered saline (PBS) and resuspended in 100 μl of binding buffer containing Annexin V (Roche Diagnostic Corporation, Indianapolis, Ind.). Cells were analyzed by flow cytometry after the addition of propidium iodide (PI). Annexin V binds to those cells that express phosphatidylserine on the outer layer of the cell membrane, and PI stains the cellular DNA of those cells with a compromised cell membrane. This allows for live cells (unstained with either fluorochrome) to be discriminated from apoptotic cells (stained only with annexin V) and necrotic cells (stained with both annexin and PI).
# HL-60 cells [2] = assay: Differentiation by CD11b/CD14 flow cytometry; assay type: cell-based, human; conditions: 7 days
# D9 cells, vector control = assay: Annexin V / cell number in D9 vector control cells; assay type: cell-based; conditions: 3 μM (CDDO: 5 hrs)
# Experimental: as §1
# (§2) To characterize the correlation between PPARγ and caspase activation, caspase-3 levels in D9 cells transfected with wt-PPARγ were analyzed. Six different single cell-derived clones were treated with 3 μM CDDO or vehicle controls for 5 hrs. Caspase-3 cleavage was analyzed by Western blot. A decrease in pro-caspase-3 with appearance of the cleaved product was readily observed in all clones. The degree of cleavage was higher in PPARγ-transfected than in vector control cells that express endogenous PPARγ. […] These changes correlated with plasma membrane changes: vector control=47.0% annexin V-positive cells; wt-PPARγ-transfected cells=73.3±1.1% annexin V (+), n=6. […] PPARγ-transfected cells were also more sensitive to PPARγ-ligand 15d-PGJ2 (41.00% vs 16.0% annexin (+) cells at 3 μM).
# To characterize the correlation between PPARγ and caspase activation, caspase-3 levels in D9 cells transfected with wt-PPARγ were analyzed. Six different single cell-derived clones were treated with 3 μM CDDO or vehicle controls for 5 hrs. Caspase-3 cleavage was analyzed by Western blot. A decrease in pro-caspase-3 with appearance of the cleaved product was readily observed in all clones. The degree of cleavage was higher in PPARγ-transfected than in vector control cells that express endogenous PPARγ. […] These changes correlated with plasma membrane changes: vector control=47.0% annexin V-positive cells; wt-PPARγ-transfected cells=73.3±1.1% annexin V (+), n=6. […]
# HL-60 cells [3] = assay: Differentiation by CD11b/CD14 flow cytometry; assay type: cell-based, human; conditions: 7 days, concentration 1 (column head M)
# Experimental: Immunophenotyping. The PE-conjugated anti-CD11b, FITC-conjugated anti-CD14 monoclonal antibody (mAb) (Becton Dickinson) and PE-conjugated anti-CD95 mAb (PharMingen) were used at a 1/10 dilution.
# Enhancement in cellular differentiation using combinations of CDDO with ATRA were tested. […] Cell differentiation was analyzed by flow cytometry (CD14/CD11b staining). […] These experiments were repeated. […]
# Finally, the inventors examined if CDDO-Me combined with ATRA would enhance differentiation. […] […] Next, combined treatment with CDDO-Me and RXR-specific ligand were tested for potentiation of anti-leukemic effects.
# HL-60 cells [4] = conditions: 15d-PGJ2 at 3 μM, BRL49653 at 5 μM (Tontonoz et al., 1998); cited from earlier work; remark: listed apart in the source
# leukemic cell lines = assay: Proliferation of leukemic cell lines (cell count and 3H incorporation); assay type: cell-based; conditions: read-out: IC50, proliferation of leukemic cells
# [5] = system: wt-PPARγ-transfected D9 cells; assay: Annexin V / cell number in wt-PPARγ-transfected D9 cells; assay type: cell-based; conditions: 3 μM (CDDO: 5 hrs, n=6)
# Experimental: as §1, §2
# as §2, with “(41.0%” for “(41.00%”
# The sensitivity of leukemic cells that overexpress PPARγ to CDDO-induced killing was tested. Vector control (pcDNA) or wt-PPARγ-transfected D9 cells (2 different clones) were treated 0.2 μM of CDDO for 48 hrs. Cell viability was assessed by cell count after Trypan blue exclusion, and apoptosis determined by PS/annexin V/Propidium Iodide (PI) flow cytometry. Leukemic cells transfected with PPARγ expressed 2.8-3.7-fold higher amounts of protein compared with vector controls. […] Importantly, CDDO increased PPARγ expression in both, vector control and transfected cells. […]
# HL-60 cells [6] = assay: Viable cell count of leukemic cells in suspension culture (Trypan blue); assay type: cell-based, human; conditions: read-out: concentration required for 50% inhibition of HL-60 cells; PPARγ ligands compared to CDDO
# Experimental: Suspension culture of leukemic cells. Leukemic cell lines were cultured at a density of 3.0×10^5 cells/mL, and AML mononuclear cells at 5×10^5 cells/mL in the presence or absence of indicated concentrations of CDDO-Me. Appropriate amounts of DMSO (final concentration<0.05%) was included as a control. For cytotoxicity studies, 1 μM ara-C was added to the cultures.
# CDDO. […] The percentage of proliferating cells were analyzed by FCM.
# CDDO-Me. […] Mechanism of growth inhibition was analyzed on cell cycle and apoptosis in HL-60 cells.
# melanoma xenografts = conditions: oral 10-30 mg/kg daily for 3 wk or 10 mg/kg injected in the tumor; cited from earlier work
SMILES,killing of HL-60 cells (HL-60 cells [1]),annexin-V-positive cells (primary AML samples) [%],CD11b % (HL-60 cells [2]; 10 μM (15d-PGJ2 column head prints M)) [%],CD11b % (HL-60 cells [2]; concentration 3 (column head M)) [%],CD11b % (HL-60 cells [2]; concentration 5 (column head M)) [%],"annexin V-positive cells (D9 cells, vector control) [%]",CD11b % (HL-60 cells [3]) [%],monocytic differentiation of HL-60 cells (HL-60 cells [4]),IC50 (leukemic cell lines) [µM],annexin V (+) cells [5] [%],IC50 (HL-60 cells [6]) [µM],growth of melanoma xenografts in vivo (melanoma xenografts)
"CCCCC/C=C/C=C1/C(=O)C=C[C@@H]1C/C=C\CCCC(=O)O [15d-PGJ2, 15-deoxyΔ^12,14PGJ2]",no killing,27.7,88.9,49.4,83.9,16.0,34.1,induce monocytic differentiation,5 to 10,41.0,5,
O=C(O)c1ccc2cc(-c3ccc(O)c(C45CC6CC(CC(C6)C4)C5)c3)ccc2c1 [CD437],,,,,,,,,,,,caused growth inhibition of melanoma xenografts
